Laboratory results reported in patent US20160326098A1, “Pharmaceutically Active Compound for Use as Anti-inflammatory Agent” (Pax Forschung GmbH, priority 2013, published 2016).

Key:
Type in all cases: in vivo
gastric mucosa = assay: Macroscopic analysis (score) of gastric mucosa damage, mice; settings: 1.11 mmol/kg, vs groups A and C, FIG. 10
Description: First experiments regarding the effect of the compound of formula (I) and a pharmaceutical composition comprising the compound of formula (I) (clear aqueous solution of compound of formula (I) at pH 4.8), respectively, on gastric injury without inflammation were conducted on mice. 48 animals were randomly allocated into three groups. Group A (n=16) served as sham-operated controls. Samples of all animals were drawn on day 1 of the clinical tests. On day 2 the animals of group B (n=16) were force-fed acetylsalicylic acid (ASS) (1.11 mmol/kg body weight). Group C (n=16) was force-fed 1.11 mmol/kg body weight of the compound according to the invention. Group A only received the respective solvent (25% ethanol in water). One day after the gavage, additional samples were drawn. Fluorescence confocal endomicroscopy was performed to examine the microvasculature and morphologic changes of the mucosa of the distal colon, and full-thickness tissue samples and venous blood samples were taken to determine the biochemical changes in the colon and plasma. The effects were determined by way of measurement of body weight, blood gas analysation and biopsy. […]
The average of the three criteria is calculated for the animals of each group, wherein “0” means for criteria 1 small or no bleeding area, for criteria 2 no bleeding area and for criteria 3 no ulcer. […]

[1] = test system: collagen-induced arthritis (CIA); assay: Collagen-induced arthritis (CIA), clinical evaluation; settings: mice, 1.11 mmol/kg force-fed from first immunization until end
Description: Further clinical studies were performed with animals having collagen-induced arthritis (CIA). In these studies, mice were used as test animals. At the age of eight weeks, the animals were immunized intradermally at the base of the tail with 50 μl of bovine collagen II emulsified in 50 μl of complete Freund's adjuvant. A second booster immunization was performed 3 weeks later, when 50 μl of incomplete Freund's adjuvant was administered with or without the same volume of collagen H. The animals were randomly allocated into experimental groups wherein group 1 served as control, having no arthritis, group 2 served as second control having arthritis, but receiving no further treatment, and group 3 having arthritis and being treated with compound according to the invention. The animals of group 3 were force-fed 1.11 mmol/kg body weight of the compound according to the invention from the first immunization until the end of the experiments. The severity of CIA was evaluated using a clinical scoring system; inflammatory hyperalgesia was detected with thermal stimulation. […]

myeloperoxidase (MPO) = assay: Tissue myeloperoxidase activity, rats with TNBS-induced colitis; settings: gastric and colon tissue, one day after 1.11 mmol/kg, vs untreated colitis and ASS groups, FIGS. 32a/32b
Description: Colonic inflammation was induced by intracolonic administration of TNBS (2,4,6-trinitrobenzenesulfonic acid) (40 mg/kg in 0.25 ml of 25% aqueous ethanol) through an 8-cm-long soft plastic catheter under transient diethylether anesthesia. In the sham-operated groups, only the vehicle for TNBS was administered. The animals were deprived of food, but not water, for 12 h before the enemas.
Colon biopsies kept on ice were homogenized in phosphate buffer (pH 7.4) containing 50 mM Tris-HCl (Reanal, Budapest, Hungary), 0.1 mM EDTA, 0.5 mM dithiothreitol, 1 mM phenylmethylsulfonyl fluoride, 10 μg/ml soybean trypsin inhibitor, and 10 μg/ml leupeptin (Sigma Aldrich GmbH, Munich, Germany). […] The activity of myeloperoxidase (MPO) was measured on the pellet of the homogenate.
The activity of MPO as a marker of tissue leukocyte infiltration was measured on the pellet of the homogenate. […] The reaction led to the hydrogen peroxide-dependent oxidation of tetramethylbenzidine, which could be detected spectrophotometrically at 450 nm (UV-1601 spetrophotometer; Shimadzu, Kyoto, Japan). Myeloperoxidase activities were measured at 37° C.; the reaction was stopped after 5 minutes by the addition of 0.2 ml of H2SO4 (2 M), and the resulting data were referred to the protein content. […]

Compound	macroscopic analysis of the mucosa (score) (gastric mucosa)	severity of CIA (clinical scoring system of Nandakumar) ([1]; vs untreated arthritis group 2, FIG. 36)	incidence of CIA ([1]; same in untreated arthritis group 2, FIG. 36) [%]	myeloperoxidase enzyme activity (myeloperoxidase (MPO))
CC(=O)Oc1ccccc1C(=O)O [ASS, acetylsalicylic acid, reference compound]	significant damage of the mucosa			
CC(=O)Oc1ccccc1C(=O)NC(CO)(CO)CO [compound according to the invention]		less serious arthritis	90	decrease of activity
